Values quoted from earlier work, collected in patent US20100197944A1, “DOCETAXEL PROCESS AND POLYMORPHS” (DR. REDDY'S LABORATORIES LIMITED, priority 2007, published 2010).

Conditions: compared with anhydrous docetaxel

CC(=O)O[C@@]12CO[C@@H]1C[C@H](O)[C@@]1(C)C(=O)[C@H](O)C3=C(C)[C@@H](OC(=O)[C@H](O)[C@@H](NC(=O)OC(C)(C)C)c4ccccc4)C[C@@](O)([C@@H](OC(=O)c4ccccc4)[C@H]21)C3(C)C [Docetaxel trihydrate, 4-acetoxy-2α-benzoyloxy-5β,20-epoxy-1,7β,10β-trihydroxy-9-oxo-tax-11-en-13-α-yl-(2R,3S)-3-tert-butoxycarbonylamino-2-hydroxy-3-phenylpropionate trihydrate]
Stability relative to the anhydrous product: substantially greater stability
